Inconclusive results and toxic doses are left out. Cut-off read from the data, not from the text of the source: active = T/C of 150% or more; inactive = T/C below 125%.
System: L1210 leukemia ip in BDF1 mice, survival T/C
Experiment: NCI In Vivo Anticancer Drug Screen. Data for tumor model L1210 Leukemia (intraperitoneal) in B6D2F1 (BDF1) mice
Conditions: endpoint: mean survival time, higher = longer survival
How it was run: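 Read-out is survival time, reported as the treated-group measurement over the vehicle-control measurement.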

[1] = dose: 100.0 mg/kg/injection, schedule: Q01DX009 (ip), vehicle: saline with Tween-80
[2] = dose: 100.0 mg/kg/injection, schedule: Q04DX003 (ip), vehicle: Klucel (hydroxypropylcellulose) (HPC)
[3] = dose: 200.0 mg/kg/injection, schedule: Q04DX003 (ip), vehicle: Klucel (hydroxypropylcellulose) (HPC)
[4] = dose: 400.0 mg/kg/injection, schedule: Q04DX003 (ip), vehicle: Klucel (hydroxypropylcellulose) (HPC)
[5] = dose: 100.0 mg/kg/injection, schedule: Q04DX003 (ip), vehicle: saline with Tween-80
[6] = dose: 200.0 mg/kg/injection, schedule: Q04DX003 (ip), vehicle: saline with Tween-80
[7] = dose: 400.0 mg/kg/injection, schedule: Q04DX003 (ip), vehicle: saline with Tween-80
[8] = dose: 100.0 mg/kg/injection, schedule: Q04DX002 (ip), vehicle: saline with Tween-80
[9] = dose: 200.0 mg/kg/injection, schedule: Q04DX002 (ip), vehicle: saline with Tween-80
[10] = dose: 400.0 mg/kg/injection, schedule: Q04DX002 (ip), vehicle: saline with Tween-80

Measured: T/C

O=C(Nc1ccc(C(=O)O)c(O)c1)c1ccccc1
inactive: dose: 100.0 mg/kg/injection, schedule: Q01DX001 (ip), vehicle: acetone 96 % of control | dose: 100.0 mg/kg/injection, schedule: Q04DX003 (ip), vehicle: saline sonified 98 % of control | dose: 200.0 mg/kg/injection, schedule: Q01DX001 (ip), vehicle: acetone 97 % of control | dose: 200.0 mg/kg/injection, schedule: Q04DX003 (ip), vehicle: saline sonified 101 % of control | dose: 400.0 mg/kg/injection, schedule: Q01DX001 (ip), vehicle: acetone 97 % of control | dose: 400.0 mg/kg/injection, schedule: Q04DX003 (ip), vehicle: saline sonified 101 % of control

CCC(C)C(C#N)(CCN1CCCCC1)Cc1cccc2ccccc12 (configuration not stated)
inactive: dose: 25.0 mg/kg/injection, schedule: Q04DX003 (ip), vehicle: Klucel (hydroxypropylcellulose) (HPC) 109 % of control | dose: 50.0 mg/kg/injection, schedule: Q04DX003 (ip), vehicle: Klucel (hydroxypropylcellulose) (HPC) 98 % of control | [1] 96 % of control | [2] 95 % of control

CCCCC(CC)COP(=O)(OCC(CC)CCCC)c1ccccc1 (configuration not stated)
inactive: dose: 50.0 mg/kg/injection, schedule: Q01DX001 (ip), vehicle: saline 100 % of control | dose: 100.0 mg/kg/injection, schedule: Q01DX001 (ip), vehicle: saline 100 % of control

O=C(N/N=C/c1ccc2c(c1)CCC2)c1ccccc1N=Cc1ccc2c(c1)CCC2
inactive: [2] 86 % of control | [3] 96 % of control | [4] 92 % of control

C[N+](C)(C)CC#N
inactive: dose: 100.0 mg/kg/injection, schedule: Q04DX003 (ip), vehicle: saline 95 % of control | dose: 200.0 mg/kg/injection, schedule: Q04DX003 (ip), vehicle: saline 95 % of control

CC(C)C(=O)Nc1ccc(S(=O)(=O)Cl)cc1
inactive: [5] 95 % of control | [6] 90 % of control | [7] 86 % of control

CC(O)(CCc1ccccc1)CC(O)(C(F)(F)F)C(F)(F)F (configuration not stated)
inactive: [5] 101 % of control | [6] 94 % of control | [7] 95 % of control

O=S1(=O)C(Cl)=C(Cl)C2C3CC(C(Cl)C3Cl)C21 (configuration not stated)
inactive: dose: 50.0 mg/kg/injection, schedule: Q01DX009 (ip), vehicle: acetone 95 % of control | dose: 100.0 mg/kg/injection, schedule: Q01DX009 (ip), vehicle: acetone 93 % of control | dose: 100.0 mg/kg/injection, schedule: Q04DX003 (ip), vehicle: acetone 92 % of control | dose: 200.0 mg/kg/injection, schedule: Q01DX009 (ip), vehicle: acetone 98 % of control | dose: 200.0 mg/kg/injection, schedule: Q04DX003 (ip), vehicle: acetone 101 % of control | dose: 400.0 mg/kg/injection, schedule: Q04DX003 (ip), vehicle: acetone 92 % of control

CSC(c1ccccc1)=[N+]1CCOCC1
inactive: dose: 50.0 mg/kg/injection, schedule: Q01DX009 (ip), vehicle: saline sonified 100 % of control | dose: 100.0 mg/kg/injection, schedule: Q01DX009 (ip), vehicle: saline sonified 94 % of control | [2] 102 % of control | dose: 200.0 mg/kg/injection, schedule: Q01DX009 (ip), vehicle: saline sonified 100 % of control | [3] 98 % of control

O=c1[nH]c(CCCOc2ccccc2)nc2ccccc12
inactive: dose: 50.0 mg/kg/injection, schedule: Q01DX001 (ip), vehicle: Klucel (hydroxypropylcellulose) (HPC) 93 % of control | dose: 100.0 mg/kg/injection, schedule: Q01DX001 (ip), vehicle: Klucel (hydroxypropylcellulose) (HPC) 104 % of control | dose: 200.0 mg/kg/injection, schedule: Q01DX001 (ip), vehicle: Klucel (hydroxypropylcellulose) (HPC) 104 % of control

CCCCCCCCCCCCCCCC=C(C)C
inactive: dose: 100.0 mg/kg/injection, schedule: Q01DX001 (ip), vehicle: saline with Tween-80 101 % of control | dose: 200.0 mg/kg/injection, schedule: Q01DX001 (ip), vehicle: saline with Tween-80 103 % of control

Nc1nc(C=O)c(Cc2ccc(Br)cc2)c(=O)[nH]1
inactive: [1] 118 % of control | [5] 100 % of control | [6] 105 % of control | [7] 102 % of control

N#C/C(=C\c1cccn1Cc1ccc2c(c1)OCO2)C(N)=O
inactive: dose: 25.0 mg/kg/injection, schedule: Q04DX002 (ip), vehicle: Klucel (hydroxypropylcellulose) (HPC) 101 % of control | dose: 50.0 mg/kg/injection, schedule: Q04DX002 (ip), vehicle: Klucel (hydroxypropylcellulose) (HPC) 101 % of control | dose: 100.0 mg/kg/injection, schedule: Q04DX002 (ip), vehicle: Klucel (hydroxypropylcellulose) (HPC) 96 % of control

CCc1ccc2c(-c3ccccc3)ccc3c2c1C(=O)c1ccccc1-3
inactive: [8] 94 % of control | [9] 88 % of control | [10] 91 % of control

CCCCCCCCCCCCCC[N+](C)(C)Cc1cc(=O)c(O)co1
inactive: dose: 12.5 mg/kg/injection, schedule: Q01DX015 (ip), vehicle: saline 97 % of control | dose: 25.0 mg/kg/injection, schedule: Q01DX015 (ip), vehicle: saline 102 % of control | dose: 25.0 mg/kg/injection, schedule: Q04DX003 (ip), vehicle: saline with Tween-80 97 % of control | dose: 50.0 mg/kg/injection, schedule: Q01DX015 (ip), vehicle: saline 96 % of control | dose: 50.0 mg/kg/injection, schedule: Q04DX003 (ip), vehicle: saline with Tween-80 101 % of control | dose: 100.0 mg/kg/injection, schedule: Q01DX015 (ip), vehicle: saline 106 % of control | [2] 87 % of control | [5] 101 % of control

COc1ccc(-c2cnc3c(N)nn(C)c3n2)cc1
inactive: [1] 109 % of control | [5] 92 % of control | dose: 200.0 mg/kg/injection, schedule: Q01DX009 (ip), vehicle: saline with Tween-80 101 % of control | [6] 100 % of control | dose: 400.0 mg/kg/injection, schedule: Q01DX009 (ip), vehicle: saline with Tween-80 109 % of control | [7] 94 % of control

O=[N+]([O-])c1cccc(-c2cnc(-c3ccccc3)cc2-c2ccccc2O)c1
inactive: [8] 94 % of control | [9] 94 % of control | [10] 102 % of control

COC(OC)c1nc(N)nc(N)c1-c1ccccc1
inactive: dose: 100.0 mg/kg/injection, schedule: Q01DX008 (ip), vehicle: Klucel (hydroxypropylcellulose) (HPC) 108 % of control | [2] 103 % of control | [3] 95 % of control | [4] 94 % of control

CC1(C)N=C(N)N=C(N)N1c1ccc(OCCCCOc2ccc(S(=O)(=O)F)cc2)cc1
inactive: dose: 75.0 mg/kg/injection, schedule: Q01DX001 (ip), vehicle: Klucel (hydroxypropylcellulose) (HPC) 106 % of control | dose: 150.0 mg/kg/injection, schedule: Q01DX001 (ip), vehicle: Klucel (hydroxypropylcellulose) (HPC) 91 % of control | dose: 300.0 mg/kg/injection, schedule: Q01DX001 (ip), vehicle: Klucel (hydroxypropylcellulose) (HPC) 96 % of control

CC1OC(=O)C(C(C)C)NC(=O)C(C(C)C)OC(=O)C(C(C)C)NC(=O)C(C)OC(=O)C(C(C)C)NC(=O)C(C(C)C)OC(=O)C(C(C)C)NC(=O)C(C)OC(=O)C(C(C)C)NC(=O)C(C(C)C)OC(=O)C(C(C)C)NC1=O (configuration not stated)
inactive: dose: 0.13 mg/kg/injection, schedule: Q01DX001 (ip), vehicle: saline 103 % of control | dose: 0.25 mg/kg/injection, schedule: Q01DX001 (ip), vehicle: saline 101 % of control | dose: 0.5 mg/kg/injection, schedule: Q01DX001 (ip), vehicle: saline 100 % of control | dose: 1.0 mg/kg/injection, schedule: Q01DX001 (ip), vehicle: saline 98 % of control | dose: 1.25 mg/kg/injection, schedule: Q01DX009 (ip), vehicle: saline with Tween-80 113 % of control | dose: 2.5 mg/kg/injection, schedule: Q01DX009 (ip), vehicle: saline with Tween-80 121 % of control | dose: 5.0 mg/kg/injection, schedule: Q01DX009 (ip), vehicle: saline with Tween-80 113 % of control | dose: 10.0 mg/kg/injection, schedule: Q01DX009 (ip), vehicle: saline with Tween-80 90 % of control

O=[N+]([O-])c1cccc(N=Cc2ccccc2)c1
inactive: dose: 100.0 mg/kg/injection, schedule: Q01DX009 (ip), vehicle: Klucel (hydroxypropylcellulose) (HPC) 117 % of control | [2] 88 % of control | dose: 200.0 mg/kg/injection, schedule: Q01DX009 (ip), vehicle: Klucel (hydroxypropylcellulose) (HPC) 111 % of control | [3] 96 % of control | dose: 400.0 mg/kg/injection, schedule: Q01DX009 (ip), vehicle: Klucel (hydroxypropylcellulose) (HPC) 88 % of control | [4] 97 % of control

From PubChem BioAssay AID248 (DTP/NCI, 2004)
